In paper PMC4446823, “Inhibition of RORγt activity and Th17 differentiation by a set of novel compounds” (BMC Immunology, 2015):
Where two headings read alike, the source gives them in different places.

Key:
RORγt [1] = target: T1, RORγt (Homo sapiens, UniProt P51449); experiment: Gal4/RORγt-LBD luciferase reporter assay in RORγt-LBD+ Jurkat stable cells; format: cell-based; settings: RORγt-LBD+ Jurkat cells, 6 h
T1 construct: expressed in transfected cells
T1 sequence (P51449 269-508 limits assumed): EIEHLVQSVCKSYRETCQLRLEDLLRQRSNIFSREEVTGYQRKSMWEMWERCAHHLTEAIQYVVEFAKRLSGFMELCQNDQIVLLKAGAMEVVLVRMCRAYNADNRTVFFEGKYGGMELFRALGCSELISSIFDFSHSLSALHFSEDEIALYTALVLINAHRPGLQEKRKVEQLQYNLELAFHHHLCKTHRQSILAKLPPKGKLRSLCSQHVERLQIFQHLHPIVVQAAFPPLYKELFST
From the text: (§1) The pGL4.31 (luc2P/GAL4UAS/Hygro) and pBIND vectors were obtained from Promega (Madison, WI, USA). An IRES-GFP sequence was first cloned into the pBIND vector. Human RORγt was then amplified using cDNA isolated from human peripheral blood mononuclear cells (PBMCs) (provided by Dr. Hui Zhang) and inserted into the reconstructed pBIND-IRES-GFP vector to generate a Gal4–RORγt-LBD-IRES-GFP fusion sequence. The primers that used to construct the pBIND- Gal4–RORγt-LBD-IRES-GFP plasmid are as follows: RORγt-LBD forward 5′- […]-3′,reverse5′- […] -3′.
A similar procedure was used to generate the Jurkat RORγt -LBD reporter cell line. For this, Jurkat cells (1 × 10^7) were transfected with pGL4.31 reporter plasmid (20 μg) by electroporation (Lonza, Basel, Switzerland) according to the manufacturer’s instructions. The transfected Jurkat cells were selected in RPMI 1640 medium containing 200 μg/mL hygromycin B prior to a second transfection. Stable Jurkat cotransfectants were then sorted based on GFP expression, and yielded a GFP^+ purity >96 % as determined by flow cytometry.
RORγt-LBD^+-Jurkat (2 × 10^4) stable cells were seeded into 96-well round-bottom plates (Corning Inc, Corning, NY) and incubated in RPMI1640 complete medium overnight. Then, Screened compounds (Enamine, Monmouth Junction, NJ) were added to the wells using a Tecan Freedom EVO 150 (Tecan, Männedorf, Switzerland) to a final concentration of 50 μM. Cells were treated with DMSO or 100 nM PMA (Sigma-Aldrich, St. Louis, MO) only for use as negative and positive controls, respectively. After a 6 h treatment period, cells were lysed and assayed for luciferase activity (Promega) following the manufacturer’s instructions.
RORγt-LBD^+-Jurkat cells were seeded into 96-well round-bottom plates (2 × 10^4) and cultured overnight prior to incubation with the screening compounds at 5-fold gradient final concentrations ranging from 5 μM to 8 nM. Cells were lysed 6 h later and assayed for luciferase activity (Promega) using the manufacturer’s instructions. Additionally, the results from the high-throughput screening at 50 μM concentration of candidates were also applied in the calculation of the EC50. The EC50 values were determined by plotting the logarithm of compound concentration versus relative luciferase activity to determine the half-maximal effective concentration (EC50).

RORγt [2] = target: T1, RORγt; experiment: Gal4/RORγt-LBD luciferase reporter assay in RORγt-LBD+ 293 T stable cells; format: cell-based; settings: RORγt-LBD+ 293 T cells, 5 μM, 6 h
From the text: as §1
The pGL4.31 reporter plasmid (4 μg) was transfected into 293 T cells (1 × 10^6) with Lipofectamine™ 2000 (Invitrogen) according to manufacturer instructions. The transfected cells were then selected in a medium containing 100 μg/mL hygromycin B (Roche, San Francisco, CA, USA) for 3 weeks to obtain a cell population that expressed the pGL4.31 reporter gene. Then, the stable cells were transfected with pBIND-RORγt-LBD-IRES-GFP plasmid (4 μg). The cotransfectants were sorted by green fluorescent protein (GFP) expression, which yielded a RORγt-LBD^+ 293Tstable reporter cell line with >96 % purity as determined by flow cytometry.
RORγt-LBD^+-293 T (1x10^4) stable cells wereseeded into 96-well plates (Corning Inc., Corning, NY)and incubated in DMEM complete medium overnight. Then the candidates were added with a final concentration of 5 μM. […]

IL-17A secretion = IL-17A secretion by ELISA in culture supernatant under Th17-polarizing conditions; format: cell-based; settings: mouse CD4+ T cells, compound 5 μM, 5 days
Method: (§2) CD4^+CD25^− T cells were isolated from spleens of 8–12-week-old C57BL/6 mice as follows: single-cell suspensions were made by crushing the spleen through a cell strainer, and red blood cells (RBCs) were lysed with RBC lysis buffer. CD4^+ T cells were then purified using magnetic-activated cell sorting (MACS) column a CD4^+ T cell isolation kit (Miltenyi Biotec, Bergisch Gladbach, Germany) according to the manufacturer’s protocol.
(§3) Spleen cells (3 × 10^6) were stimulated in 6-well plates with 5 μg/mL plate-bound anti-CD3e antibody (eBioscience, San Diego, USA) and 2 μg/mL soluble anti-CD28 antibody (eBioscience) for 24 h. The activated cells were then collected, and seeded into 96-well round-bottom plates (2 × 10^4) for Th17 differentiation in the presence of 5 ng/mL recombinant human TGF-β (R&D Systems, Minneapolis, MN), 30 ng/mL recombinant mouse IL-6 (R&D Systems, Minneapolis, MN), and either the screening compounds (5 μM final concentration) or DMSO as control. After culturing for 2 days, fresh medium (100 uL/well) containing recombinant human TGF-β, recombinant mouse IL-6, and the previously-introduced screening compounds was added to the cells, which were then cultured for additional 2 days.
The concentration of IL-17A in the splenocyte supernatant after 5 days in culture was determined using an ELISA kit (CUSABIO, Wuhan, China) according to the manufacturer’s protocol.

wild type Jurkat cells = experiment: Jurkat cell viability, MTT assay; format: cell-based, human; settings: 48 h; for reduction of Jurkat cell viability over vehicle control: 5 μM (highest concentration)
Method: (§4) Jurkat cell viability after culturing in the presence of the screened compounds was assessed by MTT assay. In brief, wild type Jurkat cells were seeded (2 × 10^4) and incubated with the compounds in 5-fold gradient dilutions. MTT (dimethylthiazolyl-2-5-diphenyltetrazolium bromide) dye solution (Sigma, St. Louis, MO, USA) was added 48 h later and incubated at 37 °C for 4 h, MTT was reduced by live cells into a colored formazan product. After centrifugation at 1500 rpm for 5 min, the supernatant was discarded and 100 μL DMSO was added to the plate, which was gently shaken for 10 min to dissolve the formazan product. Absorbance at 570 nm wavelength was recorded using Thermo Scientific Multiskan FC (Thermo Scientific, Waltham, MA, USA). Each treatment was repeated in quadruplicate. Cell viabilities were defined relative to control cells treated only with DMSO, with results used as evaluation of cytotoxicity of candidates. The half-maximal cytotoxic concentration (CC50) for each compound was calculated from the dose–response curves with the aid of GraphPad Prism software 5.0 (GraphPad Software, San Diego, CA).

[3] = Jurkat cell viability, MTT assay; format: cell-based, human; settings: human, wild-type Jurkat cells, highest concentration 5 μM
Method: as §4

[4] = tested on: mouse Th17 cell differentiation; experiment: In vitro mouse Th17 cell differentiation, mRNA by quantitative PCR; format: cell-based; settings: 5 μM, Th17-polarizing conditions (TGF-β, IL-6), 4 days, normalized to GAPDH
Method: as §2, §3
Total RNA was extracted from splenocytes with TRIzol (Invitrogen) after 5 days in culture. Approximately 1 μg total RNA was added to a 20 μL reaction volume for reverse transcription using the GoScript™ Reverse Transcription System (Promega) according to the manufacturer’s instructions. Synthesized cDNA was then used for real-time quantitative PCR using GoTaq® qPCR Master Mix (Promega). Gene expression of mouse Rorc, Il17a, and Il17f was normalized to that of Gapdh. The following primer sequences were used: Rorc forward 5′-TGTAATGTGG CCTACTCCTGCA-3′, reverse 5′-[…]-3′; Il17a forward 5′- […]-3′, reverse 5′-[…] -3′; Il17f forward 5′-[…]-3′, reverse 5′- […]-3′; Gapdh forward 5′-[…]-3′, reverse 5′-[…]-3′.

[5] = read-out: EC50, inhibition of RORγt activity, Gal4/RORγt-reporter system

Compound | EC50 (RORγt [1]; 5 μM to 8 nM, read-out: EC50, relative luciferase activity, Gal4-reporter system) [µM] | reduction of RORγt activity in 293 T cells (RORγt [2]) | IL-17A concentration in culture supernatant (IL-17A secretion) [pg/mL] | reduction of IL-17A concentration compared with vehicle-treated control cells (IL-17A secretion) [%] | EC50 (RORγt [1]; [5]) [µM] | reduction of Jurkat cell viability over vehicle control (wild type Jurkat cells) | CC50 at 48 h [3] [µM] | Il17a gene expression compared with vehicle-treated control group [4] | Il17f gene expression compared with vehicle-treated control group [4] | CC50 (wild type Jurkat cells; wild-type Jurkat cells, highest concentration 5 μM) [µM]
CC1Cc2ccccc2N1S(=O)(=O)c1ccc(Cl)c(C(F)(F)F)c1 (centres unmarked) [744267-30-9, 1-[4-chloro-3-(trifluoromethyl)phenyl] sulfonyl-2-methyl-2,3-dihydroindole, reference compound] | 0.723 | strongly inhibited | – | – | – | – | – | – | – | –
Cc1cc(NC(=O)NC(c2ccc(C(C)C)cc2)c2cccs2)no1 (centres unmarked) [compound 29, 3-(5-methyl-1,2-oxazol-3-yl) - 1-[(4-propan-2-ylphenyl) - thiophen-2-ylmethyl] urea] | – | – | 209 | 44 | 2.1 | less than 25% | > 5 | significantly reduce | significantly reduce | –
O=C(c1ccc(C2CCCCC2)cc1)N(CC1CCCO1)C1CCS(=O)(=O)C1 (centres unmarked) [compound 31, 4-cyclohexyl-N-(1,1-dioxothiolan-3-yl) - N-(oxolan-2-ylmethyl) benzamide] | – | – | 226 | 39 | 17.5 | less than 25% | – | significantly reduce | significantly reduce | –
CCc1nnc(NC(=O)C2(S(=O)(=O)c3ccc(C)c(C)c3)CCCC2)s1 [compound 35, 1-(3,4-dimethylphenyl) sulfonyl-N-(5-ethyl-1,3,4-thiadiazol-2-yl) cyclopentane-1-carboxamide] | – | – | – | – | 28 | less than 25% | – | significantly reduce | significantly reduce | –
CCCc1cc(C(=O)OCC(=O)NC(=O)NC2CCCC2)sc1C [compound 36, 2- Thiophenecarboxylic acid, 5-methyl-4-propyl-,2-[[(cyclopentylamino)carbonyl]amino] - 2-oxoethyl ester] | – | – | 189 | 49 | 4.2 | about 50% | – | significantly reduce | significantly reduce | > 5
